Experimental data reported in PMC11087268, “A folate inhibitor exploits metabolic differences in Pseudomonas aeruginosa for narrow-spectrum targeting” (Nature Microbiology, 2024).
≈ marks a conversion by molar mass, not a printed value. Where “and” joins values, the source holds several entries; their conditions need not be identical. Equal values may be shown once.

Columns and labels:
P. aeruginosa PA14 = experiment: Growth competition assay, c.f.u. of P. aeruginosa PA14; type: cell-based, Pseudomonas aeruginosa
Protocol: Cultures of each species were grown separately as well as being mixed 1:1. […] The number of colonies on Pseudomonas Selection Agar plates is reported as the c.f.u. ml^−1 of P. aeruginosa. To calculate c.f.u.s ml^−1 of E. coli MG1655, c.f.u.s ml^−1 were determined from LB agar plates and the c.f.u.s ml^−1 of P. aeruginosa were subtracted from these values.

[1] = test system: Klebsiella pneumoniae ATCC 438165; experiment: MIC against K. pneumoniae in LB broth; type: cell-based; settings: ATCC438165, 16 h, 37 °C, OD600
Protocol: (§1) Overnight cultures were diluted 1:150 in LB broth and added to a 96-well plate. Antibiotics were serially diluted 1:2 and added to columns of the 96-well plate and grown at 37 °C with continuous shaking. Cell growth was measured using optical density at 600 nm (OD600). MIC assays were performed in either BioTek Synergy HT or Tecan InfiniteM200 Pro microplate readers.

[2] = test system: Pseudomonas aeruginosa PA14; experiment: MIC against P. aeruginosa PA14 in LB broth; type: cell-based
Protocol: as §1

[3] = test system: HLF (human lung fibroblast); experiment: Mammalian cell cytotoxicity, HLF; type: cell-based; settings: 72 h, CyQUANT, read-out: IC50 Fluorofolin
Protocol: (§2) HK-2 (500 cells per well) (ATCC CRL-2190), HLF (500 cells per well) (Cell Applications 506K-05a), WI-38 (500 cells per well) (ATCC CCL-75) or PBMC (5,000 cells per well) (TPCS PB010C) cells were seeded in white opaque 384-well plates. After 24 h, DMSO or compounds were added in 3-fold dilutions and cells incubated for 72 h. For PBMC, CellTiter-Glo reagent was added in equal volume and incubated for 30 min, after which luminescence was read. For other cell types, CyQUANT detection reagent was added in equal volume and cells incubated for 1 h, after which fluorescence was read with standard green filter set […]. Cell toxicity was evaluated by Pharmaron.

[4] = Serum (plasma protein) binding; type: in vitro ADME
Protocol: An initial t = 0 sample was collected. […] Serum binding parameters were determined as follows: • % Bound = 100% − % Unbound • logK = log(% Bound/100 − % Bound) • % Remaining = Area-ratio6h/Area-ratio0h × 100% • % Recovery was determined as (Area-ratiobuffer-chamber + Area-ratioplasma-chamber)/(Area-ratiototal sample) × 100

ESKAPE pathogens = experiment: Growth inhibition of P. aeruginosa PA01, ATTC 27853 and ESKAPE pathogens (MIC panel); type: cell-based; settings: P. aeruginosa PA01 and ATTC 27853 and all 5 ESKAPE pathogens tested
Protocol: as §1
(§3) Bacterial colonies (4–8) of strains of interest were vortexed in saline and adjusted to an OD600 of 0.2. Strains were diluted 1:200 into CAMHB media in 96-well plates. Antibiotics were serially diluted 1:3 in DMSO, and 1 μl of each dilution was added to bacteria. The plates were incubated for 18–20 h at 37 °C before observation.

[5] = test system: PBMC (peripheral blood mononuclear cell); experiment: Mammalian cell cytotoxicity, PBMC; type: cell-based, human
Protocol: as §2

[6] = test system: Escherichia coli lptD4213; experiment: MIC against E. coli lptD4213 in LB broth; type: cell-based; settings: LPTD4213, 16 h
Protocol: as §1

[7] = test system: Enterobacter cloacae ATCC BAA-1143; experiment: MIC against E. cloacae in LB broth; type: cell-based; settings: ATCCBAA1143, 16 h
Protocol: as §1

[8] = test system: Acinetobacter baumannii ATCC 17978; experiment: MIC (WuXi, Mueller–Hinton broth) against A. baumannii ATCC 17978; type: cell-based; settings: ATCC17978, performed by WuXi
Protocol: as §3

[9] = test system: Enterococcus faecalis ATCC 51575; experiment: MIC (WuXi, Mueller–Hinton broth) against E. faecalis; type: cell-based; settings: ATCC51575
Protocol: as §3

Escherichia coli MG1655 = experiment: MIC against E. coli MG1655 in LB broth; type: cell-based; settings: 16 h, 37 °C, OD600
Protocol: as §1

K. pneumoniae = experiment: Growth with or without TMI supplementation and fluorofolin, K. pneumoniae; type: cell-based, Klebsiella pneumoniae; settings: fluorofolin 2X MIC
Protocol: (§4) Where listed, growth media were prepared according manufacturer recommendations: LB broth and LB broth supplemented with 0.3 mM thymine (BD Biosciences 244610, Alfa Aesar A15879), 0.3 mM methionine (Sigma-Aldrich M9625), 0.3 mM inosine (EMD Millipore 4060), cation-adjusted Mueller–Hinton II broth (CAMHB) (BD 212322) or 0.3 mM thymidine (Sigma-Aldrich T1895), Gutnick minimal media (1.0 g l^−1 K2SO4, 13.5 g l^−1 K2HPO4, 4.7 g l^−1 KH2PO4, 0.1 g l^−1 MgSO4·7H2O, 10 mM NH4Cl as a nitrogen source and 0.4% w/v glucose as a carbon source)[65].
(§5) Extended Data Fig. 3 TMI supplementation can also rescue other species from fluorofolin DHFR inhibition. […] (f) P. aeruginosa PA14 or E. coli lptd4213 treated with fluorofolin 50 μg/mL in the presence or absence of 0.3 mM thymidine. (g) E. coli lptd4213 treated with fluorofolin 50 μg/mL and SMX (78.1 μg/mL) in the presence or absence of 0.3 mM thymidine or 0.3 mM TMI supplementation, Curves represent average optical at 600 nm (OD600) of 2 biological replicates. Means are shown. Source data

[10] = test system: Salmonella typhimurium CMCC 50115; experiment: MIC (WuXi, Mueller–Hinton broth) against S. typhimurium; type: cell-based; settings: Salmonella enterica, performed by WuXi
Protocol: as §3

[11] = test system: HK-2 (human kidney epithelial); experiment: Mammalian cell cytotoxicity, HK-2; type: cell-based; settings: 72 h, CyQUANT, read-out: IC50 Fluorofolin
Protocol: as §2

S. aureus USA300 = experiment: Growth with or without TMI supplementation and fluorofolin, S. aureus USA300; type: cell-based, Staphylococcus aureus; settings: fluorofolin 2X MIC
Protocol: as §4, §5

PA14 = experiment: Checkerboard assay fluorofolin / sulfamethoxazole; type: cell-based, Pseudomonas aeruginosa; settings: for FIC index: PA14, SMX 0.000 ug/mL
Protocol: Cells were seeded in a similar manner as described above for MIC calculations. […] Fractional inhibitory concentrations (FICs) were calculated as [[…], where [fluorofolin] and [SMX] are the concentrations of compounds in a given well, which were divided by the concentration of drug at the MIC for each compound.

E. faecalis = experiment: Growth with or without TMI supplementation and fluorofolin, E. faecalis; type: cell-based, Enterococcus faecalis; settings: fluorofolin 2X MIC
Protocol: as §4, §5

[12] = mouse plasma, 1 μM, 6 h, dialysis

Q: Which “growth in co-culture with TMI supplementation” value (P. aeruginosa PA14; PA14 : E. coli MG1655 1:1, 50 μg ml^−1 fluorofolin, selective plating) does the source give for Nc1nc(N)c2c(ccc3c2ccn3Cc2ccnc(F)c2)n1 [fluorofolin] here?
A: selectively inhibited the growth of P. aeruginosa

Q: And the “P. Aeruginosa PA14 CFU/mL” value (P. aeruginosa PA14; Panel C, Fluorofolin)?
A: 39 CFU/mL and 46 CFU/mL and 40 CFU/mL

Q: What about the MIC [1] of the same molecule?
A: 6.25 µg/mL

Q: And the MIC ([2]; Pseudomonas aeruginosa, PA14)?
A: 3.1 µg/mL

Q: What about the MIC ([2]; Pseudomonas aeruginosa, PA14, 16 h) of the same molecule?
A: 3.12 µg/mL

Q: What about the MIC ([2]; Wildtype PA14, control for each drug stock) of the same molecule?
A: 3.1 µg/mL

Q: What about the IC50 [3] of the same molecule?
A: 17.2 µg/mL (≈ 55.9 µM)

Q: And the “% Bound” value [4, 12]?
A: 71.7000%

Q: And the “% Recovery” value [4, 12]?
A: 91.8800%

Q: What about the “% Unbound” value [4, 12] of the same molecule?
A: 28.3000%

Q: And the fraction unbound at 6 h, 1 μM ([4]; mouse plasma, 1 μM, 6 h, dialysis, read-out: % Bound (converted))?
A: 0.283

Q: What about the LogK ([4]; mouse plasma, log(% Bound/(100 − % Bound))) of the same molecule?
A: 0.4000

Q: What about the recovery at 6 h, 1 μM ([4]; mouse, 1 μM, 6 h, dialysis) of the same molecule?
A: 91.9%

Q: And the remaining at 6 h, 1 μM ([4]; mouse, read-out: % Remaining after 6 hours)?
A: 89.7%

Q: What about the concentration inhibiting growth (ESKAPE pathogens) of the same molecule?
A: less than 50 µg ml^−1

Q: And the IC50 ([5]; Homo sapiens, PBMC, 72 h, CellTiter-Glo, read-out: IC50 Fluorofolin)?
A: 39.8 µg/mL (≈ 129 µM)

Q: What about the “increase in IC50 compared with IRS-16” value ([5]; PBMCs) of the same molecule?
A: 9.6 fold

Q: And the MIC [6]?
A: 0.02 µg/mL

Q: And the MIC [7]?
A: 12.5 µg/mL

Q: And the MIC [8]?
A: 0.8 µg/mL (≈ 2.59 µM)

Q: What about the MIC [9] of the same molecule?
A: 0.01 µg/mL (≈ 0.0324 µM)

Q: What about the MIC (Escherichia coli MG1655) of the same molecule?
A: 0.625 µg/mL

Q: What about the “rescue of growth inhibition by TMI supplementation” value (from here on “rescue of growth inhibition”) (K. pneumoniae) of the same molecule?
A: could also be rescued from fluorofolin growth inhibition by TMI supplementation

Q: What about the MIC [10] of the same molecule?
A: 0.03 µg/mL (≈ 0.0973 µM)

Q: And the IC50 [11]?
A: 51.7 µg/mL (≈ 168 µM)

Q: And the “rescue of growth inhibition” value (S. aureus USA300)?
A: could also be rescued from fluorofolin growth inhibition by TMI supplementation

Q: And the FIC index (PA14; Fluorofolin 3.125 ug/mL)?
A: 1

Q: And the FIC index (PA14; Fluorofolin 6.25 ug/mL)?
A: 2

Q: What about the FIC index (PA14; Fluorofolin 12.5 ug/mL) of the same molecule?
A: 4

Q: And the FIC index (PA14; Fluorofolin 25 ug/mL)?
A: 8

Q: And the MIC (PA14; Pseudomonas aeruginosa, PA14, read-out: MIC of fluorofolin in the presence of SMX)?
A: 0.4 µg/mL

Q: What about the “rescue of growth inhibition” value (E. faecalis) of the same molecule?
A: could also be rescued from fluorofolin growth inhibition by TMI supplementation
